In series [1] the target is human GLP-1 receptor (hGLP-1R) (Homo sapiens, UniProt P43220). Nature of the series: cAMP HTRF assay, HEK-293 cell line over-expressing human GLP-1 receptor. Format: cell-based. The conditions noted are these: HEK-293, cAMP, 0% HSA. The method, boiled down: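 Thawed HEK-293 cells over-expressing human GLP-1R (5000 cells/well) in HBSS/20 mM HEPES buffer, with 0.1% HSA where stated, incubated with compound for 30 min at room temperature. Generated cAMP quantified by HTRF.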
human GLP-1 receptor (hGLP-1R), sequence (P43220 24-463): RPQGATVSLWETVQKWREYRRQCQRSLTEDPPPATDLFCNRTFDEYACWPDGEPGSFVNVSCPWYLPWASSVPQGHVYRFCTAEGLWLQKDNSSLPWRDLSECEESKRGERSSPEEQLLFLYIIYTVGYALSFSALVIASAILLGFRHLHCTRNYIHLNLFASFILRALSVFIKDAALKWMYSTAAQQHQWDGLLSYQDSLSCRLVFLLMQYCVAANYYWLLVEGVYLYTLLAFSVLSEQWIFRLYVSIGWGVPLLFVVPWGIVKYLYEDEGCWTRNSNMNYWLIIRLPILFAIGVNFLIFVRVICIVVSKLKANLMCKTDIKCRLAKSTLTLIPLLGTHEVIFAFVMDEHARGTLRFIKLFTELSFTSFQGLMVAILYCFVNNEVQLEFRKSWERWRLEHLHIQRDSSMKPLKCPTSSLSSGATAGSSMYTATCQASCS

Series [2] can be described thus: Chemical stability assessment (relative purity loss by UHPLC-UV). Format: physicochemical. The conditions noted are these: Chemical stability buffer system A: 20 mM phosphate buffer pH 7.4. How it is done: Purity of a peptide batch was determined through UHPLC/MS prior to chemical stability measurement. The target concentration was […] pure compound. Solutions from solid samples were prepared in the following buffer systems with a concentration of ˜300 μM compound based on the previously determined % purity:
Chemical stability buffer system A) 20 mM phosphate buffer pH 7.4,
Chemical stability buffer system B) 8 mM phosphate buffer pH 7.4, 14 mg/ml propylene glycol, 5.5 mg/ml phenol
Chemical stability buffer system C) 100 mM phosphate buffer pH 7.4, 2.7 mg/ml m-cresol
Prepared solutions were filtered through […] pore size and filled into sterilized glass containers under laminar flow conditions.
Glass containers were stored for 28 days at 5 and 40° C. After this time, the samples were centrifuged for 15 min at 2500 RCF. Then 1.5 μl of the undiluted supernatant were analysed with UHPLC-UV.
The chemical stability was rated through the relative loss of purity calculated by the equation:
[(purity after 28 days at 5° C.)−(purity after 28 days at 40° C.)]/(purity after 28 days at 5° C.)]*100%
The purity is calculated as
[(peak area peptide)/(total peak area)]*100%
The analytical methods used were Analytical UHPLC Method B or C.
Peptide samples were prepared in Chemical stability buffer system A or B and stability was assessed as described in Methods.

The nature of series [3]: Dynamic light scattering (DLS) for the assessment of physical stability. Format: physicochemical. The conditions noted are these: DLS buffer system A. From the text: A monochromatic and coherent light beam (laser) is used to illuminate the liquid sample. Dynamic Light Scattering (DLS) measures light scattered from particles (1 nm≤radius≤1 μm) that undergo Brownian motion. This motion is induced by collisions between the particles and solvent molecules, that themselves are moving due to their thermal energy. The diffusional motion of the particles results in temporal fluctuations of the scattered light (R. Pecora, Dynamic Light Scattering: Applications of Photon Correlation Spectroscopy, Plenum Press, 1985).
The scattered light intensity fluctuations are recorded and transformed into an autocorrelation function. By fitting the autocorrelation curve to an exponential function, the diffusion coefficient D of the particles in solution can be derived. The diffusion coefficient is then used to calculate the hydrodynamic radius Rh (or apparent Stokes radius) through the Stokes-Einstein equation assuming spherical particles. This calculation is defined in ISO 13321 and ISO 22412 (International Standard ISO13321 Methods for Determination of Particle Size Distribution Part 8: Photon Correlation Spectroscopy, International Organisation for Standardisation (ISO) 1996; International Standard ISO22412 Particle Size Analysis—Dynamic Light Scattering, International Organisation for Standardisation, 2008).
In case of polydisperse samples, the autocorrelation function is the sum of the exponential decays corresponding to each of the species. The temporal fluctuations of the scattered light can then be used to determine the size distribution profile of the particle fraction or family. The first order result is an intensity distribution of scattered light as a function of the particle size. The intensity distribution is naturally weighted according to the scattering intensity of each particle fraction or family. For biological materials or polymers, the particle scattering intensity is proportional to the square of the molecular weight. Thus, small amount of aggregates/agglomerates or presence or a larger particle species can dominate the intensity distribution. However, this distribution can be used as a sensitive detector for the presence of large material in the sample.
The DLS technique produces distributions with inherent peak broadening. The polydispersity index % Pd is a measure of the width of the particle size distribution and is calculated by standard methods described in ISO13321 and ISO22412 [International Standard ISO13321 Methods for Determination of Particle Size Distribution Part 8: Photon Correlation Spectroscopy, International Organisation for Standardisation (ISO) 1996; International Standard ISO22412 Particle Size Analysis—Dynamic Light Scattering, International Organisation for Standardisation (ISO) 2008].
Solutions from solid samples were prepared in buffer systems (see below) with a target concentration of 300 μM compound based on the previously determined % purity.
DLS buffer system A) 20 mM phosphate buffer pH 7.4
DLS buffer system B) 8 mM phosphate buffer pH 7.4, 14 mg/ml propylene glycol, 5.5 mg/ml phenol
DLS buffer system C) 100 mM phosphate buffer pH 7.4, 2.7 mg/ml m-cresol Solutions were filtered through 0.22 μm pore size and filled into sterilized glass containers under laminar flow conditions. For every peptide solution, the apparent hydrodynamic radius (Rh), the corresponding Scattering Intensity (I), and the Mass Contribution (M) were determined as an average over 3-6 replicates from the intensity distribution of the scattered light averaging only high-quality measurements. Relative standard deviations (RSD) for these parameters were calculated from the same number of replicates. […]

The structures appear in SMILES notation. *1 amine or outer side, *2 acyl side, *3 side chain or, on linkers, in order; H or OH if unused. Where a SMILES comes first, the peptide text is derived from it. Side-chain parts run from the residue outwards. [ ]: non-standard residue; d: D form. The star is where a group is joined. C20 diacid = O=C(O)CCCCCCCCCCCCCCCCCCC(=O)*; C18 diacid = O=C(O)CCCCCCCCCCCCCCCCC(=O)*; γGlu = O=C(O)[C@H](CCC(=O)[*:2])N[*:1]; AEEA = NCCOCCOCC(=O)O; Aib = CC(C)(N)C(=O)O

Regarding `CC[C@H](C)[C@H](NC(=O)[C@H](Cc1ccccc1)NC(=O)[C@H](CCC(=O)O)NC(=O)[C@H](CCC(=O)O)NC(=O)[C@H](CCC(N)=O)NC(=O)[C@H](Cc1c[nH]cn1)NC(=O)[C@@H](NC(=O)[C@H](CCCNC(=N)N)NC(=O)[C@H](CC(=O)O)NC(=O)[C@H](CCCCNC(=O)COCCOCCNC(=O)COCCOCCNC(=O)CC[C@H](NC(=O)CCCCCCCCCCCCCCCCCCC(=O)O)C(=O)O)NC(=O)C(C)(C)NC(=O)[C@@H](NC(=O)[C@H](CO)NC(=O)[C@H](CC(C)C)NC(=O)[C@H](CC(=O)O)NC(=O)[C@H](CO)NC(=O)[C@@H](NC(=O)[C@H](Cc1ccccc1)NC(=O)[C@@H](NC(=O)CNC(=O)[C@H](CCC(=O)O)NC(=O)C(C)(C)NC(=O)[C@@H](N)Cc1ccc(O)cc1)[C@@H](C)O)[C@@H](C)CC)[C@@H](C)CC)[C@@H](C)CC)C(=O)N[C@@H](CCC(=O)O)C(=O)N[C@@H](Cc1c[nH]c2ccccc12)C(=O)N[C@@H](CC(C)C)C(=O)N[C@@H](CC(C)C)C(=O)N[C@@H](C)C(=O)N[C@@H](CCC(N)=O)C(=O)NCC(=O)N1CCC[C@H]1C(=O)N[C@@H](CO)C(=O)N[C@@H](CO)C(=O)NCC(=O)N[C@@H](C)C(=O)N1CCC[C@H]1C(=O)N1CCC[C@H]1C(=O)N1CCC[C@H]1C(=O)N[C@@H](CO)C(N)=O` [SEQ ID NO: 10, H2N-Y-Aib-E-G-T-F-I-S-D-I-S-I-Aib-K[{AEEA}2-gGlu-C20OH]-DRIHQEEFIEWILAQGPSSGAPPPS-NH2] (H-Y[Aib]EGTFISDLSI[Aib]K([AEEA-AEEA-γGlu-C20 diacid])DRIHQEEFIEWLLAQGPSSGAPPPS-NH2), the concentration for a half-maximal effect (EC50) in series [1] is over 10 nM. The “Relative purity loss over 28 days at 40° C.” value in series [2] amounted to 3.3%. In addition, in series [3] (0 weeks), the “I and SD (Scattering Intensity)” value is recorded as 60 ± 3%; the “M and SD (Mass Contribution)” value turned out to be 100 ± 0%; the “apparent Rh and SD” value is on record as 1.97 ± 0.03 nm. In addition, in series [3] (4 weeks storage at 40° C.), the “I and SD (Scattering Intensity)” value turned out to be 75 ± 3%; the “M and SD (Mass Contribution)” value is 100 ± 0%; the “apparent Rh and SD” value came to 1.91 ± 0.04 nm.
In series [1], `CC[C@H](C)[C@H](NC(=O)[C@H](Cc1ccccc1)NC(=O)[C@H](CCC(=O)O)NC(=O)[C@H](CCC(=O)O)NC(=O)[C@H](CCC(N)=O)NC(=O)[C@H](Cc1c[nH]cn1)NC(=O)[C@@H](NC(=O)[C@H](CCCNC(=N)N)NC(=O)[C@H](CC(=O)O)NC(=O)[C@H](CCCCNC(=O)COCCOCCNC(=O)COCCOCCNC(=O)CC[C@H](NC(=O)CCCCCCCCCCCCCCCCC(=O)O)C(=O)O)NC(=O)C(C)(C)NC(=O)[C@@H](NC(=O)[C@H](CO)NC(=O)[C@H](CC(C)C)NC(=O)[C@H](CC(=O)O)NC(=O)[C@H](CO)NC(=O)[C@@H](NC(=O)[C@H](Cc1ccccc1)NC(=O)[C@@H](NC(=O)CNC(=O)[C@H](CCC(=O)O)NC(=O)C(C)(C)NC(=O)[C@@H](N)Cc1ccc(O)cc1)[C@@H](C)O)[C@@H](C)CC)[C@@H](C)CC)[C@@H](C)CC)C(=O)N[C@@H](CCC(=O)O)C(=O)N[C@@H](Cc1c[nH]c2ccccc12)C(=O)N[C@@H](CC(C)C)C(=O)N[C@@H](CC(C)C)C(=O)N[C@@H](C)C(=O)N[C@@H](CCC(N)=O)C(=O)NCC(=O)N1CCC[C@H]1C(=O)N[C@@H](CO)C(=O)N[C@@H](CO)C(=O)NCC(=O)N[C@@H](C)C(=O)N1CCC[C@H]1C(=O)N1CCC[C@H]1C(=O)N1CCC[C@H]1C(=O)N[C@@H](CO)C(=O)O` [SEQ ID NO: 11, H2N-Y-Aib-E-G-T-F-I-S-D-I-S-I-Aib-K[{AEEA}2-gGlu-C18OH]-DRIHQEEFIEWILAQGPSSGAPPPS-OH] (H-Y[Aib]EGTFISDLSI[Aib]K([AEEA-AEEA-γGlu-C18 diacid])DRIHQEEFIEWLLAQGPSSGAPPPS-OH) gave an EC50 of over 10 nM. Also, the “Relative purity loss over 28 days at 40° C.” value in series [2] came out at 6.1%. In series [3] (0 weeks), the “I and SD (Scattering Intensity)” value is on record as 96 ± 1%; the “M and SD (Mass Contribution)” value came out at 100 ± 0%; the “apparent Rh and SD” value turned out to be 1.82 ± 0.04 nm. Also, in series [3] (4 weeks storage at 40° C.), the “I and SD (Scattering Intensity)” value is on record as 85 ± 2%; the “M and SD (Mass Contribution)” value was 100 ± 0%; the “apparent Rh and SD” value was found to be 1.83 ± 0.05 nm.

Values taken from US20230103631A1, “PEPTIDES AS SELECTIVE GIP RECEPTOR AGONISTS” (Sanofi, priority 2020, published 2023).
